# Tested on: not listed separately
# Assay: DRUGMATRIX: ATPase, Na+/K+ enzyme inhibition (substrate: ATP)
# Assay type: tissue-based, Sus scrofa, Heart
# Details: Not Active = under 50% inhibition at 10 µM
SMILES,IC50,Ki
Nc1nnc(-c2cccc(Cl)c2Cl)c(N)n1 [LAMOTRIGINE],Not Active,Not Active
NNC(=O)c1ccncc1 [ISONIAZID],Not Active,Not Active
COC(=O)C1=C(C)NC(C)=C(C(=O)OC)C1c1ccccc1[N+](=O)[O-] [NIFEDIPINE],Not Active,Not Active

# Target: Sigma non-opioid intracellular receptor 1 (Homo sapiens, UniProt Q99720)
# Sequence (Q99720 whole entry): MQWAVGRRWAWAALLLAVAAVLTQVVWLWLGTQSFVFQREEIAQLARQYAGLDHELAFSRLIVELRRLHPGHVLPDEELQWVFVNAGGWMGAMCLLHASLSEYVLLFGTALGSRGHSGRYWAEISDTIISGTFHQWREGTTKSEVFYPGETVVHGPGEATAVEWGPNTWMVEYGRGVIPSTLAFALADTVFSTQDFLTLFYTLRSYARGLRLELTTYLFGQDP
# Assay: DRUGMATRIX: Sigma1 radioligand binding (ligand: [3H] Haloperidol)
# Assay type: cell membranes, Jurkat, Membrane
# Details: jurkat; Not Active = under 50% inhibition at 10 µM
row,SMILES,IC50
1,Nc1nnc(-c2cccc(Cl)c2Cl)c(N)n1 [LAMOTRIGINE],Not Active
2,NNC(=O)c1ccncc1 [ISONIAZID],Not Active
3,COC(=O)C1=C(C)NC(C)=C(C(=O)OC)C1c1ccccc1[N+](=O)[O-] [NIFEDIPINE],Not Active

# Target: T1, Endothelin-1 receptor (Homo sapiens, UniProt P25101); note: in other assays of this panel Not Active means under 50% inhibition at 10 µM
# T1 sequence (P25101 whole entry): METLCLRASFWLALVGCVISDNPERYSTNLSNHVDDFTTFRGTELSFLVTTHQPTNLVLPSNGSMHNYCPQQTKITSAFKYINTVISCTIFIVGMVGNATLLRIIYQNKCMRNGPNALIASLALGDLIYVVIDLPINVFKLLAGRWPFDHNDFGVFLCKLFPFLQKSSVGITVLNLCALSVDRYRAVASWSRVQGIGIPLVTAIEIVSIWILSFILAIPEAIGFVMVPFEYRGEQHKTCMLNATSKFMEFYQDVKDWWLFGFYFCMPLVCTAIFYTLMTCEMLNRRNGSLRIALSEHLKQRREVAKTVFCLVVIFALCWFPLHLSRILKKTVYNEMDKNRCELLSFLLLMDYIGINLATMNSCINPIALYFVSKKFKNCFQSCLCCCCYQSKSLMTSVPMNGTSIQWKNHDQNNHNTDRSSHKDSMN
# Assay type: cell membranes, Membrane
# Details: cho-k1
row,SMILES,IC50
1,Nc1nnc(-c2cccc(Cl)c2Cl)c(N)n1 [LAMOTRIGINE],Not Active
2,NNC(=O)c1ccncc1 [ISONIAZID],Not Active
3,COC(=O)C1=C(C)NC(C)=C(C(=O)OC)C1c1ccccc1[N+](=O)[O-] [NIFEDIPINE],Not Active

# Tested on: not listed separately
# Assay: DRUGMATRIX: Serotonin (5-Hydroxytryptamine) 5-HT3 radioligand binding (ligand: [3H] GR-65630)
# Assay type: cell membranes, Membrane
# Details: hek293; Not Active = under 50% inhibition at 10 µM
SMILES,IC50,Ki
Nc1nnc(-c2cccc(Cl)c2Cl)c(N)n1 [LAMOTRIGINE],Not Active,Not Active
NNC(=O)c1ccncc1 [ISONIAZID],Not Active,Not Active
COC(=O)C1=C(C)NC(C)=C(C(=O)OC)C1c1ccccc1[N+](=O)[O-] [NIFEDIPINE],Not Active,Not Active

# Tested on: not listed separately
# Assay: DRUGMATRIX: Calcium Channel Type L, Phenylalkylamine radioligand binding (ligand: [3H] (-)-Desmethoxyverapamil (D-888))
# Assay type: cell membranes, Rattus norvegicus, Wistar, Brain, Membrane
# Details: Not Active = under 50% inhibition at 10 µM
SMILES,IC50,Ki
Nc1nnc(-c2cccc(Cl)c2Cl)c(N)n1 [LAMOTRIGINE],Not Active,Not Active
NNC(=O)c1ccncc1 [ISONIAZID],Not Active,Not Active

# Same assay, conditions: Not Active = under 50% inhibition at 10 µM; read-out: IC50
row,SMILES,IC50 [nM]
1,COC(=O)C1=C(C)NC(C)=C(C(=O)OC)C1c1ccccc1[N+](=O)[O-] [NIFEDIPINE],878

# Same assay, conditions: Not Active = under 50% inhibition at 10 µM; read-out: Ki
row,SMILES,Ki [nM]
1,COC(=O)C1=C(C)NC(C)=C(C(=O)OC)C1c1ccccc1[N+](=O)[O-] [NIFEDIPINE],853

# Target: Melanocortin receptor 4 (Homo sapiens, UniProt P32245); note: in other assays of this panel Not Active means under 50% inhibition at 10 µM
# Sequence (P32245 whole entry): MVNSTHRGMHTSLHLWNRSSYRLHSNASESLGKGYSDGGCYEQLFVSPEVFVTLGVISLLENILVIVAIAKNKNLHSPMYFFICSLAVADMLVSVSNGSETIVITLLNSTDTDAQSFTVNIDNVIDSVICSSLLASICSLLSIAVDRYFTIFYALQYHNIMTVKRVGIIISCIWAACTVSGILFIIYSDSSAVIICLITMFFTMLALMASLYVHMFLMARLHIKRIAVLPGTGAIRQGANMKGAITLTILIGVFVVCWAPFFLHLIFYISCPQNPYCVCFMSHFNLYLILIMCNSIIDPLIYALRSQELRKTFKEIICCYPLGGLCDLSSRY
# Assay type: cell membranes, Membrane
# Details: hek293
row,SMILES,IC50
1,Nc1nnc(-c2cccc(Cl)c2Cl)c(N)n1 [LAMOTRIGINE],Not Active
2,NNC(=O)c1ccncc1 [ISONIAZID],Not Active
3,COC(=O)C1=C(C)NC(C)=C(C(=O)OC)C1c1ccccc1[N+](=O)[O-] [NIFEDIPINE],Not Active

# Target: Kappa-type opioid receptor (Homo sapiens, UniProt P41145)
# Sequence (P41145 whole entry): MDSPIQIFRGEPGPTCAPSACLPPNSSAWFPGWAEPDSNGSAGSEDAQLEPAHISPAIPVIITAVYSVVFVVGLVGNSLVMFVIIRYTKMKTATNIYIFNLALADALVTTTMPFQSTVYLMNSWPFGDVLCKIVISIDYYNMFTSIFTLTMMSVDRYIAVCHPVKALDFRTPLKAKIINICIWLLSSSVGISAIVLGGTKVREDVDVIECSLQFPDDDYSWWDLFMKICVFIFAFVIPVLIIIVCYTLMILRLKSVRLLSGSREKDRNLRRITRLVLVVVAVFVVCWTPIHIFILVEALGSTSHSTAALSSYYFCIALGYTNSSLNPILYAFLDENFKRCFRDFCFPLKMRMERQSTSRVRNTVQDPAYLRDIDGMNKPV
# Assay: DRUGMATRIX: Opiate kappa (OP2, KOP) radioligand binding (ligand: [3H] Diprenorphine)
# Assay type: cell membranes, HEK293, Membrane
# Details: hek293; Not Active = under 50% inhibition at 10 µM
row,SMILES,IC50
1,Nc1nnc(-c2cccc(Cl)c2Cl)c(N)n1 [LAMOTRIGINE],Not Active
2,NNC(=O)c1ccncc1 [ISONIAZID],Not Active
3,COC(=O)C1=C(C)NC(C)=C(C(=O)OC)C1c1ccccc1[N+](=O)[O-] [NIFEDIPINE],Not Active

# Tested on: not listed separately
# Assay: DRUGMATRIX: GABAA, Muscimol, Central radioligand binding (ligand: [3H] Muscimol)
# Assay type: cell membranes, Rattus norvegicus, Wistar, Brain, Membrane
# Details: Not Active = under 50% inhibition at 10 µM
SMILES,IC50,Ki
Nc1nnc(-c2cccc(Cl)c2Cl)c(N)n1 [LAMOTRIGINE],Not Active,Not Active
NNC(=O)c1ccncc1 [ISONIAZID],Not Active,Not Active
COC(=O)C1=C(C)NC(C)=C(C(=O)OC)C1c1ccccc1[N+](=O)[O-] [NIFEDIPINE],Not Active,Not Active

# Tested on: not listed separately
# Assay: DRUGMATRIX: Calcium Channel Type L, Benzothiazepine radioligand binding (ligand: [3H] Diltiazem)
# Assay type: cell membranes, Rattus norvegicus, Wistar, Brain, Membrane
# Details: Not Active = under 50% inhibition at 10 µM
SMILES,IC50,Ki
Nc1nnc(-c2cccc(Cl)c2Cl)c(N)n1 [LAMOTRIGINE],Not Active,Not Active
NNC(=O)c1ccncc1 [ISONIAZID],Not Active,Not Active

# Same assay, conditions: Not Active = under 50% inhibition at 10 µM; read-out: IC50
row,SMILES,IC50 [nM]
1,COC(=O)C1=C(C)NC(C)=C(C(=O)OC)C1c1ccccc1[N+](=O)[O-] [NIFEDIPINE],8.67

# Same assay, conditions: Not Active = under 50% inhibition at 10 µM; read-out: Ki
row,SMILES,Ki [nM]
1,COC(=O)C1=C(C)NC(C)=C(C(=O)OC)C1c1ccccc1[N+](=O)[O-] [NIFEDIPINE],7.71

# Tested on: not listed separately
# Assay: DRUGMATRIX: Nicotinic Acetylcholine radioligand binding (ligand: [125I] Epibatidine)
# Assay type: cell membranes, Membrane
# Details: imr-32; Not Active = under 50% inhibition at 10 µM
SMILES,IC50,Ki
Nc1nnc(-c2cccc(Cl)c2Cl)c(N)n1 [LAMOTRIGINE],Not Active,Not Active
NNC(=O)c1ccncc1 [ISONIAZID],Not Active,Not Active
COC(=O)C1=C(C)NC(C)=C(C(=O)OC)C1c1ccccc1[N+](=O)[O-] [NIFEDIPINE],Not Active,Not Active

# Target: Beta-1 adrenergic receptor (Homo sapiens, UniProt P08588)
# Sequence (P08588 whole entry): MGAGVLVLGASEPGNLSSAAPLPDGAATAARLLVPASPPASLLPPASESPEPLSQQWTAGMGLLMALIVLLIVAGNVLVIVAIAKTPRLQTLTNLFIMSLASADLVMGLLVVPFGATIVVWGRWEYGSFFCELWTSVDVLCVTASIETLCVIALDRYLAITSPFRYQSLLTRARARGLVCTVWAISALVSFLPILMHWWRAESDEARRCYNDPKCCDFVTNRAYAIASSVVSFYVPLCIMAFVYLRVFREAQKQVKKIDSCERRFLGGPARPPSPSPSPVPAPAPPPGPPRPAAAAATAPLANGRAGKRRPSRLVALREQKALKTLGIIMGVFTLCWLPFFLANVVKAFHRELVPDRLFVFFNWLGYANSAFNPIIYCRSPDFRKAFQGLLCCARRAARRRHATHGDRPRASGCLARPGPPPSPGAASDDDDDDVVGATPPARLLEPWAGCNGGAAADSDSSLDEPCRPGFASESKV
# Assay: DRUGMATRIX: Adrenergic beta1 radioligand binding (ligand: [125I] Cyanopindolol)
# Assay type: cell membranes, CHO-K1, Membrane
# Details: cho-k1; Not Active = under 50% inhibition at 10 µM
row,SMILES,IC50
1,Nc1nnc(-c2cccc(Cl)c2Cl)c(N)n1 [LAMOTRIGINE],Not Active
2,NNC(=O)c1ccncc1 [ISONIAZID],Not Active
3,COC(=O)C1=C(C)NC(C)=C(C(=O)OC)C1c1ccccc1[N+](=O)[O-] [NIFEDIPINE],Not Active

# Target: 5-hydroxytryptamine receptor 6 (Homo sapiens, UniProt P50406); note: in other assays of this panel Not Active means under 50% inhibition at 10 µM
# Sequence (P50406 whole entry): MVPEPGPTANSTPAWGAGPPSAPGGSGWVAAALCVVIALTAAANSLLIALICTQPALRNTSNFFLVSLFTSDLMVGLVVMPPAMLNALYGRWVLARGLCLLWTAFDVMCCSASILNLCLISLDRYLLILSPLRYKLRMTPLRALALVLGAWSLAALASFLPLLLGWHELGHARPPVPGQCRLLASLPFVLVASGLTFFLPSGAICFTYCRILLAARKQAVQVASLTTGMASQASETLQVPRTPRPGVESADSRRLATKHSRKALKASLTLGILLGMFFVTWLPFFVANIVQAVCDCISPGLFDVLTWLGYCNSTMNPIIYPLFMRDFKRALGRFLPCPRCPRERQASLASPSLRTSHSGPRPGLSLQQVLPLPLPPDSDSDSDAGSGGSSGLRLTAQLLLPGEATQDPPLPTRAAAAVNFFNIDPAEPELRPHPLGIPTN
# Assay type: cell membranes, HeLa, Membrane
# Details: hela
row,SMILES,IC50
1,Nc1nnc(-c2cccc(Cl)c2Cl)c(N)n1 [LAMOTRIGINE],Not Active
2,NNC(=O)c1ccncc1 [ISONIAZID],Not Active
3,COC(=O)C1=C(C)NC(C)=C(C(=O)OC)C1c1ccccc1[N+](=O)[O-] [NIFEDIPINE],Not Active

# Target: Mu-type opioid receptor (Homo sapiens, UniProt P35372)
# Sequence (P35372 whole entry): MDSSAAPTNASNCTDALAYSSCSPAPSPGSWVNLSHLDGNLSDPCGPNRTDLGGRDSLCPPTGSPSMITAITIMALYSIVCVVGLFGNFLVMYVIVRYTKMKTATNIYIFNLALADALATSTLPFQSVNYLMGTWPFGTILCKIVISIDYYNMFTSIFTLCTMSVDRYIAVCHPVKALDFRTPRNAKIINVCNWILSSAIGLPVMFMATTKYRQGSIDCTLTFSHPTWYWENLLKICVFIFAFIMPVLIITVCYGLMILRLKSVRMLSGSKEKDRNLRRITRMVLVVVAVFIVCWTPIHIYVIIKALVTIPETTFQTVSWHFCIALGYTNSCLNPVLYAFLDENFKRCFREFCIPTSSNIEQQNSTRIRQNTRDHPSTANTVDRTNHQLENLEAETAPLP
# Assay: DRUGMATRIX: Opiate mu (OP3, MOP) radioligand binding (ligand: [3H] Diprenorphine)
# Assay type: cell membranes, CHO-K1, Membrane
# Details: cho-k1; Not Active = under 50% inhibition at 10 µM
row,SMILES,IC50
1,Nc1nnc(-c2cccc(Cl)c2Cl)c(N)n1 [LAMOTRIGINE],Not Active
2,NNC(=O)c1ccncc1 [ISONIAZID],Not Active
3,COC(=O)C1=C(C)NC(C)=C(C(=O)OC)C1c1ccccc1[N+](=O)[O-] [NIFEDIPINE],Not Active

# Target: T2, Neuropeptide Y receptor type 2 (Homo sapiens, UniProt P49146); note: in other assays of this panel Not Active means under 50% inhibition at 10 µM
# T2 sequence (P49146 whole entry): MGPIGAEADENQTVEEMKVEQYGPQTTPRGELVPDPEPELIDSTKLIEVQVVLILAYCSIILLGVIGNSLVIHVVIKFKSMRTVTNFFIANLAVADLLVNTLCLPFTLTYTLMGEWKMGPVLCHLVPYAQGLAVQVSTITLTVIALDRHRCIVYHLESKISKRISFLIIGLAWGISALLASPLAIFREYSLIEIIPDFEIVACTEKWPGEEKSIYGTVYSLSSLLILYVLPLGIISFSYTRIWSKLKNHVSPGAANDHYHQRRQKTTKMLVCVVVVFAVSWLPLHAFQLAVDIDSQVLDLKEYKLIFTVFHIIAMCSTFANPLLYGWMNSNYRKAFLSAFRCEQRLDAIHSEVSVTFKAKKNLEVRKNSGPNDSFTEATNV
# Assay type: cell membranes, Membrane
# Details: kan-ts
row,SMILES,IC50
1,Nc1nnc(-c2cccc(Cl)c2Cl)c(N)n1 [LAMOTRIGINE],Not Active
2,NNC(=O)c1ccncc1 [ISONIAZID],Not Active
3,COC(=O)C1=C(C)NC(C)=C(C(=O)OC)C1c1ccccc1[N+](=O)[O-] [NIFEDIPINE],Not Active

# Target: T3, 5-hydroxytryptamine receptor 2C (Homo sapiens, UniProt P28335)
# T3 sequence (P28335 whole entry): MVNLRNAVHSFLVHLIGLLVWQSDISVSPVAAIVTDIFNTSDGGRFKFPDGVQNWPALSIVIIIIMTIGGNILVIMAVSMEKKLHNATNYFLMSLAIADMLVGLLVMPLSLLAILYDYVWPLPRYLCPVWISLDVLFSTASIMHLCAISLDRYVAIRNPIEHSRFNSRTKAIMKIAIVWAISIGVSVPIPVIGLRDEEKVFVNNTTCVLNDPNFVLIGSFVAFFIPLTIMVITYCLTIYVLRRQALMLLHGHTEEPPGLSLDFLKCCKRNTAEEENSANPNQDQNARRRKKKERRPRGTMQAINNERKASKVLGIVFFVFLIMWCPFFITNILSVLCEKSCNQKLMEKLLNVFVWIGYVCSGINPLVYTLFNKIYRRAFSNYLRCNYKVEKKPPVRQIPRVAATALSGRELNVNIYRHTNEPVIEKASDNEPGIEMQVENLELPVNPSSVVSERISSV
# Assay: DRUGMATRIX: Serotonin (5-Hydroxytryptamine) 5-HT2C radioligand binding (ligand: [3H] Mesulergine)
# Assay type: cell membranes, CHO-K1, Membrane
# Details: Not Active = under 50% inhibition at 10 µM; read-out: IC50
row,SMILES,IC50 [nM]
1,COC(=O)C1=C(C)NC(C)=C(C(=O)OC)C1c1ccccc1[N+](=O)[O-] [NIFEDIPINE],18300

# Same assay, conditions: Not Active = under 50% inhibition at 10 µM; read-out: Ki
row,SMILES,Ki [nM]
1,COC(=O)C1=C(C)NC(C)=C(C(=O)OC)C1c1ccccc1[N+](=O)[O-] [NIFEDIPINE],9570

# Same assay, conditions: cho-k1; Not Active = under 50% inhibition at 10 µM
row,SMILES,IC50
1,Nc1nnc(-c2cccc(Cl)c2Cl)c(N)n1 [LAMOTRIGINE],Not Active
2,NNC(=O)c1ccncc1 [ISONIAZID],Not Active

# Target: T4, Alpha-1B adrenergic receptor (Rattus norvegicus, UniProt P15823)
# T4 sequence (P15823 whole entry): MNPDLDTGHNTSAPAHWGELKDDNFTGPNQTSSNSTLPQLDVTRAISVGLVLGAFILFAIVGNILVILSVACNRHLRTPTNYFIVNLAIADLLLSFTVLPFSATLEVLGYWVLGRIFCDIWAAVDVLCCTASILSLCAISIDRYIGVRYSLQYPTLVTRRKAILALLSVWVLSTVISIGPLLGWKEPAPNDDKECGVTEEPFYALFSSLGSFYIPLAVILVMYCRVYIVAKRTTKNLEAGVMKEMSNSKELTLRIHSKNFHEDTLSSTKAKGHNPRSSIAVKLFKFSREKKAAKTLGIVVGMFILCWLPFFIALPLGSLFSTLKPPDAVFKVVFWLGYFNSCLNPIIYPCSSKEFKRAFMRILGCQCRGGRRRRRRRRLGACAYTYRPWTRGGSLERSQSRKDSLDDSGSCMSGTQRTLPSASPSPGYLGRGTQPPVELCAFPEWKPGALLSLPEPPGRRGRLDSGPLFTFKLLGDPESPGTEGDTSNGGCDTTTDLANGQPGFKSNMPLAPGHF
# Assay: DRUGMATRIX: Alpha-1B adrenergic receptor radioligand binding (ligand: prazosin)
# Assay type: cell membranes, Wistar, Liver, Membrane
# Details: Not Active = under 50% inhibition at 10 µM
row,SMILES,IC50
1,Nc1nnc(-c2cccc(Cl)c2Cl)c(N)n1 [LAMOTRIGINE],Not Active
2,NNC(=O)c1ccncc1 [ISONIAZID],Not Active
3,COC(=O)C1=C(C)NC(C)=C(C(=O)OC)C1c1ccccc1[N+](=O)[O-] [NIFEDIPINE],Not Active

# Tested on: not listed separately
# Assay: DRUGMATRIX: Glutamate, Kainate radioligand binding (ligand: [3H] Kainic acid)
# Assay type: cell membranes, Rattus norvegicus, Wistar, Brain, Membrane
# Details: Not Active = under 50% inhibition at 10 µM
SMILES,IC50,Ki
Nc1nnc(-c2cccc(Cl)c2Cl)c(N)n1 [LAMOTRIGINE],Not Active,Not Active
NNC(=O)c1ccncc1 [ISONIAZID],Not Active,Not Active
COC(=O)C1=C(C)NC(C)=C(C(=O)OC)C1c1ccccc1[N+](=O)[O-] [NIFEDIPINE],Not Active,Not Active

# Source: ChEMBL document CHEMBL1909046, “DrugMatrix in vitro pharmacology data”
